Like-named read-outs stand apart in the source and are kept apart here.
Assays:
Experiment in all cases: selectivity profiling in a panel of 340 wild-type kinases (Reaction Biology Europe)
Type in all cases: binding
340 wild-type kinases [1] = target: T1, 340 wild-type kinases (Homo sapiens, UniProt Q13470)
T1 construct: purchased Reaction Biology Europe
T1 sequence (Q13470 1-666): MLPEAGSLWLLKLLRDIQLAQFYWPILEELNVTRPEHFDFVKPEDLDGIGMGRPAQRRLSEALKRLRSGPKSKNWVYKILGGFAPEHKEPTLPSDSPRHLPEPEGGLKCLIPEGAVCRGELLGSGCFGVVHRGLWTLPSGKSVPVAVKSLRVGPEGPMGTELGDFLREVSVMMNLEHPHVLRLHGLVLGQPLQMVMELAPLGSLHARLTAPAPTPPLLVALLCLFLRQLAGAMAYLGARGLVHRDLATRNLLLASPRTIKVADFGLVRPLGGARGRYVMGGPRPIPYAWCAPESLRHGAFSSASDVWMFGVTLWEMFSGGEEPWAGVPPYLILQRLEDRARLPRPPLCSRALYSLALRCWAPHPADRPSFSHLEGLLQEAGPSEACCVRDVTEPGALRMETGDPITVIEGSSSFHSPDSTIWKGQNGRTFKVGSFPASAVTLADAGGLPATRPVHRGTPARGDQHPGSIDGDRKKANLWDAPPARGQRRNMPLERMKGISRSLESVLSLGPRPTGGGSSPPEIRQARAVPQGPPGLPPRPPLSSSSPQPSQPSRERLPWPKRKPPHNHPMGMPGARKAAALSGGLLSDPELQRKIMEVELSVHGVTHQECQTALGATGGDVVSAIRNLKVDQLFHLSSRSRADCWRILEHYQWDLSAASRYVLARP

340 wild-type kinases [2] = target: T2, 340 wild-type kinases (Homo sapiens, UniProt O43318)
T2 construct: purchased Reaction Biology Europe
T2 sequence (O43318 1-606): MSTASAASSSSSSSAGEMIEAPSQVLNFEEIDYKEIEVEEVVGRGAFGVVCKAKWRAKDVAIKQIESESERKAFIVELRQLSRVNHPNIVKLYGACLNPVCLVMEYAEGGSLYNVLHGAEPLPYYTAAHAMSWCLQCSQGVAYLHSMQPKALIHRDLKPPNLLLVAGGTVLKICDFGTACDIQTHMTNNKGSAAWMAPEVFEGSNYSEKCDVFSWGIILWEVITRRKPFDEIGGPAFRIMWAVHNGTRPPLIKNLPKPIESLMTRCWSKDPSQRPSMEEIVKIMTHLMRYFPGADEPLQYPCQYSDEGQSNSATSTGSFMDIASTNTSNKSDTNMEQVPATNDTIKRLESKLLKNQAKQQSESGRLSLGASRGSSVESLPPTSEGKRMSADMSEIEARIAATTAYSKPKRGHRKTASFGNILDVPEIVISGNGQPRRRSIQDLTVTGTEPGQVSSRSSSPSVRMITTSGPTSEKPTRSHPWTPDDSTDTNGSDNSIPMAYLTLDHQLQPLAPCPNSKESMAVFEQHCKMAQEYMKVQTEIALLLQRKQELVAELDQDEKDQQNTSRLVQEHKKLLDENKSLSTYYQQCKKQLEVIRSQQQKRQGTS

340 wild-type kinases [3] = target: T3, 340 wild-type kinases (Homo sapiens, UniProt P35626)
T3 construct: purchased Reaction Biology Europe
T3 sequence (P35626 1-688): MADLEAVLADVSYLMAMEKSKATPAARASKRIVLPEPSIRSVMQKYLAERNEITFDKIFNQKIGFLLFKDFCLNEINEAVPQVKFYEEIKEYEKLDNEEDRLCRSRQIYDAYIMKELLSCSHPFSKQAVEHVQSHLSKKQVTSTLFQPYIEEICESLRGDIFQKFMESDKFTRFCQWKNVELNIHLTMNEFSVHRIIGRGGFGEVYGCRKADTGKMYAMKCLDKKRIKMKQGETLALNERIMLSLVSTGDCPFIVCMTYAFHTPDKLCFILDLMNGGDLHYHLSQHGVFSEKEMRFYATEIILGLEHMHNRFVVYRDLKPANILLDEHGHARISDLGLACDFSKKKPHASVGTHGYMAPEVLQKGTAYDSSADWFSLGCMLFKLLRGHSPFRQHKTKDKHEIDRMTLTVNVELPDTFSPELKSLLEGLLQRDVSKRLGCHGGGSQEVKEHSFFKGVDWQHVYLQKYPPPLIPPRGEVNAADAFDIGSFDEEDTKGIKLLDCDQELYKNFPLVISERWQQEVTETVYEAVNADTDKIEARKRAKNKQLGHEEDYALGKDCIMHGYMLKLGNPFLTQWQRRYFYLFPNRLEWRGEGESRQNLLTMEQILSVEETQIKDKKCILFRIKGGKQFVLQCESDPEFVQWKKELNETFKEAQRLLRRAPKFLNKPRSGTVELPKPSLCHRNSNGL

340 wild-type kinases [4] = target: T4, 340 wild-type kinases (Homo sapiens, UniProt Q9UEE5)
T4 construct: purchased Reaction Biology Europe
T4 sequence (Q9UEE5 1-414): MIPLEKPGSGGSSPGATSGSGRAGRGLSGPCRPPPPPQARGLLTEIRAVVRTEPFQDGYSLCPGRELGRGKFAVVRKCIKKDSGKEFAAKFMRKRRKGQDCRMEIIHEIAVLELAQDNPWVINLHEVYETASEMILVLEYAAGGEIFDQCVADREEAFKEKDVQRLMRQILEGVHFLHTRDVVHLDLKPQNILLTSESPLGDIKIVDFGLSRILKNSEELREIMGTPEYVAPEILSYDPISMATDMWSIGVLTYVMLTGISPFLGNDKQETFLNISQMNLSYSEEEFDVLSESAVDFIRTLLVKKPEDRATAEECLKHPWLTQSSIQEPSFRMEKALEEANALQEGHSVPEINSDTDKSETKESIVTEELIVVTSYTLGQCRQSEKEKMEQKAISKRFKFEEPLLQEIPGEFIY

CNC(=O)c1ccc2c(c1)C(=O)c1ccc(Nc3ccc(F)c(NC(=O)C4CC4)c3)cc1CC2 [Compound 2015]
remaining activity at 0.2 µM (340 wild-type kinases [1]; 0.2 µM 2015, read-out: TNK1 residual activity): 92.8%
remaining activity at 1 µM (340 wild-type kinases [1]; 1 µM 2015, read-out: TNK1 residual activity): 85.3%
remaining activity at 0.2 µM (340 wild-type kinases [1]; TNK1, 0.2 µM, read-out: residual activity): 92.8%
remaining activity at 1 µM (340 wild-type kinases [1]; TNK1, 1 µM, read-out: residual activity): 85.3%
remaining activity at 0.2 µM (340 wild-type kinases [2]; 0.2 µM 2015, read-out: MAP3K7/MAP3K7IP1 residual activity): 96.8%
remaining activity at 1 µM (340 wild-type kinases [2]; 1 µM 2015, read-out: MAP3K7/MAP3K7IP1 residual activity): 93.9%
remaining activity at 1 µM (340 wild-type kinases [2]; MAP3K7/MAP3K7IP1, 1 µM, read-out: residual activity): 93.9%
remaining activity at 0.2 µM (340 wild-type kinases [3]; 0.2 µM 2015, read-out: GRK3 residual activity): 117%
remaining activity at 1 µM (340 wild-type kinases [3]; 1 µM 2015, read-out: GRK3 residual activity): 99.7%
remaining activity at 0.2 µM (340 wild-type kinases [3]; GRK3, 0.2 µM, read-out: residual activity): 117%
remaining activity at 1 µM (340 wild-type kinases [3]; GRK3, 1 µM, read-out: residual activity): 99.7%
remaining activity at 0.2 µM (340 wild-type kinases [4]; 0.2 µM 2015, read-out: STK17A residual activity): 109%
remaining activity at 1 µM (340 wild-type kinases [4]; 1 µM 2015, read-out: STK17A residual activity): 97.8%
remaining activity at 0.2 µM (340 wild-type kinases [4]; STK17A, 0.2 µM, read-out: residual activity): 109%
remaining activity at 1 µM (340 wild-type kinases [4]; STK17A, 1 µM, read-out: residual activity): 97.8%
